Results taken from patent US11584726B2 (Beijing Foreland Pharma Co., Ltd., priority 2017, dated 2023).
Blank lines part the entries; values can stand above or below the compound they belong to.

Tests used:
[1] = tested on: CD8 on peripheral blood cell; experiment: Effects on the expression of CD8 on peripheral blood cell in mice (flow cytometry); format: in vivo, mice (C57 BL/6); conditions: intragastric, once a day for four days, mouse peripheral blood
Description: (§1) FITC Rat Anti-Mouse CD8a: BD, Cat. #553030.
(§2) PE Rat Anti-Mouse CD4: BD, Cat. #557308.
(§3) APC Rat Anti-Mouse CD19: BD, Cat. #561738.
(§4) The compounds used in the test were prepared by the chemical department of Beijing Forelandpharma Co. Ltd.
(§5) Routs of administration: intragastric administration, once a day, and continuous administration for four days.
(§6) After the administration, supraorbital venous blood was collected from the mouse, added to an EP tube (1.5 ml) containing an anticoagulant, and kept on the ice. The resulting mixture was transferred to a test tube, centrifuged at 4° C. and 1200 rpm/min for 5 min, removed with the supernatant liquid, added with a lysate, processed with cell lysis on the ice for 5 min, then pre-dyed, added with diluted antibody, and incubated away from light for 30 min. After the incubation, the resulting mixture was washed, removed with the supernatant liquid, added with stationary liquid, and kept in a refrigerator at 4° C. away from light for the test of flow cytometry.

[2] = tested on: CD4 on peripheral blood cell; experiment: Effects on the expression of CD4 on peripheral blood cell in mice (flow cytometry); format: in vivo, mice (C57 BL/6); conditions: intragastric, once a day for four days, mouse peripheral blood
Description: as §1, §2, §3, §4, §5, §6

[3] = tested on: CD19 on peripheral blood cell; experiment: Effects on the expression of CD19 on peripheral blood cell in mice (flow cytometry); format: in vivo, mice (C57 BL/6); conditions: intragastric, once a day for four days, mouse peripheral blood
Description: as §1, §2, §3, §4, §5, §6

[4] = Stability observation on the isolated solid; format: physicochemical; conditions: white solid; stored at low temperature under the protection of nitrogen
Description: 0.426 g (0.727 mmol) of intermediate 80 was dissolved in 16 ml of methanol, added with 0.01 ml of concentrated hydrochloric acid, purged with nitrogen to remove air, followed by the addition of 0.09 g of palladium 10% on carbon, purged with hydrogen, and reacted overnight at 95° C. The reaction was monitored by TLC (DCM:MeOH=10:1). After the reaction was completed, the resulting mixture was filtered, and the filter cake was washed with hot methanol. The filtrate was concentrated by rotary evaporation, added with 1% sodium hydrate solution to adjust pH to 9-10. […] Yield: 8.5%. LC-MS: 406 [M+1]^+, tR=1.328 min. A corresponding hydrogenchloride salt was obtained by mixing the solid with a solution of hydrogen chloride in methanol under stirring.

S1P3 = S1P3 (Homo sapiens (Human), UniProt Q99500); experiment: PathHunter β-arrestin test S1P3; format: cell-based; conditions: PathHunter β-arrestin engineering cells
Chain of S1P3 (Q99500 whole entry, species assumed): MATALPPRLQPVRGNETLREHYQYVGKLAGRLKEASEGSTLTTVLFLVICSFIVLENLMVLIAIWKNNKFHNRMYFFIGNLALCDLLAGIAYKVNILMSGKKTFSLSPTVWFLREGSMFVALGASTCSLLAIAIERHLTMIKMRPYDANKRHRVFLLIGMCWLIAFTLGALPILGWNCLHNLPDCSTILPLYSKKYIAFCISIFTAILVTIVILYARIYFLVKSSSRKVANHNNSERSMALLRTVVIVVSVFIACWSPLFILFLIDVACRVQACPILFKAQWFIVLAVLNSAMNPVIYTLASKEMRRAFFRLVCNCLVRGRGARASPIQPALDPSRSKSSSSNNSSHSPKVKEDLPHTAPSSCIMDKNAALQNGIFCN
Description: (§7) 1. PathHunter β-arrestin testing system was used to detect the biological activity of the compounds.
(§8) 2. β-arrestin engineering cells were cultured on […] culture plates and placed in an incubator at 37° C.
(§9) 3. The sample to be tested was diluted with reaction solution in 5-fold dilution.
(§10) 4. The diluted sample to be tested was added to the engineering cells and the reaction was induced and observed.
(§11) 5. The chemiluminescence signal produced in the test may be detected by multifunctional enzyme marker (PerkinElmer Envision™).
(§12) Test Analysis and Results
(§13) 6. The data obtained was analyzed using the data analysis software of CBIS (ChemInnovation, CA) to achieve EC50, and the test results are shown in Table 2.

S1P4 = S1P4 (Homo sapiens (Human), UniProt O95977); experiment: PathHunter β-arrestin test S1P4; format: cell-based; conditions: PathHunter β-arrestin engineering cells
Chain of S1P4 (O95977 whole entry, species assumed): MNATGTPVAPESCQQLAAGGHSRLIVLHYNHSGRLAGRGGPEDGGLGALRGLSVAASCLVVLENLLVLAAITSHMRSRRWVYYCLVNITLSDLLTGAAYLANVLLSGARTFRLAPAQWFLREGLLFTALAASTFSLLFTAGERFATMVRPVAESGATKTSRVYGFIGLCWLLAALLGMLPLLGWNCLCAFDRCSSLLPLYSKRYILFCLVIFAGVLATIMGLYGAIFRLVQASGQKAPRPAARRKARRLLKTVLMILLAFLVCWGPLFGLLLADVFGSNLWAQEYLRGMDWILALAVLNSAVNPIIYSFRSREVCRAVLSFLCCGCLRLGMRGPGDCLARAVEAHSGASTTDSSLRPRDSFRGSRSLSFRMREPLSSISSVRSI
Description: as §7, §8, §9, §10, §11, §12, §13

S1P1 = S1P1 (Homo sapiens (Human), UniProt P21453); experiment: PathHunter β-arrestin test S1P1; format: cell-based; conditions: PathHunter β-arrestin engineering cells
Chain of S1P1 (P21453 whole entry, species assumed): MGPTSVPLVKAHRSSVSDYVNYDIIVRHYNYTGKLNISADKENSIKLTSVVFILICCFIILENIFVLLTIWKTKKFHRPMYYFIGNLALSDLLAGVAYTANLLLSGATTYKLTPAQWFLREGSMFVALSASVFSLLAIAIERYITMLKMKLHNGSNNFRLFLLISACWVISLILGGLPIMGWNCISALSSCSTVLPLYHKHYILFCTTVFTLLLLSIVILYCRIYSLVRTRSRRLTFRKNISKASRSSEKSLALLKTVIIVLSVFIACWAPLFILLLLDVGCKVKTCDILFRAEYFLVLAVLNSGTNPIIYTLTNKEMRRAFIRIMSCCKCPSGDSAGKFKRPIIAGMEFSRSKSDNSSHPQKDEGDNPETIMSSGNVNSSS
Description: as §7, §8, §9, §10, §11, §12, §13

S1P2 = S1P2 (Homo sapiens (Human), UniProt O95136); experiment: PathHunter β-arrestin test S1P2; format: cell-based; conditions: PathHunter β-arrestin engineering cells
Chain of S1P2 (O95136 whole entry, species assumed): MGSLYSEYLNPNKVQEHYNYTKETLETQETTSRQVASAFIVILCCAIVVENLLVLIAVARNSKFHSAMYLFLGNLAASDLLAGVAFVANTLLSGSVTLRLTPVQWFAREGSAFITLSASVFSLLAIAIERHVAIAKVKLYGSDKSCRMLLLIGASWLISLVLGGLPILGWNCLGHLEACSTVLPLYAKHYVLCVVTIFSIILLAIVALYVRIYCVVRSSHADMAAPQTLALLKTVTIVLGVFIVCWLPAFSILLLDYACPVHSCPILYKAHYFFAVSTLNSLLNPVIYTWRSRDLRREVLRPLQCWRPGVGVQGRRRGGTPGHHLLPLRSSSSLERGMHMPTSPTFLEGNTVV
Description: as §7, §8, §9, §10, §11, §12, §13

S1P5 = S1P5 (Homo sapiens (Human), UniProt Q9H228); experiment: Fluorescence detection FLIPR assay, activation of GPCR (S1P5); format: cell-based; conditions: total detection time 180 s, read-out: FLIPR Test EC50 S1P5
Chain of S1P5 (Q9H228 whole entry, species assumed): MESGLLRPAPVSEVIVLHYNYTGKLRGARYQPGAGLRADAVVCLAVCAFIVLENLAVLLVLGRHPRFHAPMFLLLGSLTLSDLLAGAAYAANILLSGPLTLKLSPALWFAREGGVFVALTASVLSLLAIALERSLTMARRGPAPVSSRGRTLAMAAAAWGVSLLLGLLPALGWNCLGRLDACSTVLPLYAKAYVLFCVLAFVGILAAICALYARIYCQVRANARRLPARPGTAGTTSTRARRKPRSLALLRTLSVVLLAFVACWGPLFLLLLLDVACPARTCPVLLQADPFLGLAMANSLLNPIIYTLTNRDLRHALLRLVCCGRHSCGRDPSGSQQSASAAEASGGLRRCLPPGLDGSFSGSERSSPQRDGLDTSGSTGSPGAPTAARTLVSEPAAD
Description: The sample to be tested was dissolved in DMSO and diluted with detection buffer solution in 3-fold dilution. A reagent and a positive control were diluted in the same way.
The reactions of the agonist, the reagent and the positive control were detected by a device of […] with a total detection time of 180 s to estimate the ability to activate GPCR (S1P5) of each compound.

hERG potassium channel = hERG potassium channel (Homo sapiens (Human), UniProt Q12809); experiment: hERG patch clamp test in HEK293 engineering cells; format: cell-based; conditions: HEK293 cells stably expressing hERG potassium channel
Chain of hERG potassium channel (Q12809 whole entry): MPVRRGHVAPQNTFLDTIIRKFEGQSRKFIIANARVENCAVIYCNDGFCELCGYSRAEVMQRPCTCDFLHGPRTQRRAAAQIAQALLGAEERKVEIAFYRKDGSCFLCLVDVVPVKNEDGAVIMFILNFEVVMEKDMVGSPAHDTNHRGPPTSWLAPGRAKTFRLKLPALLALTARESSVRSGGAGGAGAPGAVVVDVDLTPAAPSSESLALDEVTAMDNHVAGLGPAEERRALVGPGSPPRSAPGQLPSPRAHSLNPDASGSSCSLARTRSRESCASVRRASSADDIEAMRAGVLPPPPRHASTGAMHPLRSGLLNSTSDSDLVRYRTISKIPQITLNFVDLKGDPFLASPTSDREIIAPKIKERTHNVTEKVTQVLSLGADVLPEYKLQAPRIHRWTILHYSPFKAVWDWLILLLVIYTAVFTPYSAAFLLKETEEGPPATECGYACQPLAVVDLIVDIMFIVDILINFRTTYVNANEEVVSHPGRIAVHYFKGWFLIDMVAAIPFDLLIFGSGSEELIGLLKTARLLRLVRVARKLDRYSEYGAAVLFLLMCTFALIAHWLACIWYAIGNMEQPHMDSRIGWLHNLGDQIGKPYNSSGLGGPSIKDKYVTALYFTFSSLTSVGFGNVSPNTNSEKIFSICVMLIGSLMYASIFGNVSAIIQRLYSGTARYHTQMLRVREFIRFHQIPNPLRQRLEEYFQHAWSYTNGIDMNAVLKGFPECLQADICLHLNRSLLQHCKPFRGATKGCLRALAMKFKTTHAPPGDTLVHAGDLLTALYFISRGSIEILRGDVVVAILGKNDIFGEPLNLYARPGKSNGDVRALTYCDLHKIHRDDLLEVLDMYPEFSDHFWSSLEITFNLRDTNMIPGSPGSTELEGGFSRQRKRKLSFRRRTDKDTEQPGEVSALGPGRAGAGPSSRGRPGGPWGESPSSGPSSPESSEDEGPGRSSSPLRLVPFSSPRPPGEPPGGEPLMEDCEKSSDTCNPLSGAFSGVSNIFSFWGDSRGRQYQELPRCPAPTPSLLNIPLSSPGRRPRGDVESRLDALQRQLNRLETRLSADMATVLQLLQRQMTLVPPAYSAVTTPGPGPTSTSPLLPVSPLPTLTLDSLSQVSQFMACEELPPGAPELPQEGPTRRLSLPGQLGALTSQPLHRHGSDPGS
Description: 1. HEK293 engineering cells stably expressed with hERG potassium channel were used to test the compounds.
The cells were separated by TrypLE™ Express before the test. 3×10^3 of cells were spread on a cover plate, cultured in 24-well plate and tested 18 hours later. The signals produced by voltage stimulation of potassium currents in cells were recorded by electrophysiological techniques.
Data Analysis and Results
First of all, currents after the action of drug of each concentration and blank control were standardized separately
[formula] and then the corresponding inhibition ratio of each concentration was calculated
[formula] The average and the standard error were calculated for each concentration, and 50% inhibiting concentration of each compound was calculated according to the following equation: […]
The dose-dependent effect was obtained through nonlinear fitting with the equation above. C refers to drug concentration, IC50 refers to 50% inhibiting concentration and h refers to hill coefficient. The curve fitting and the calculation of IC50 were processed by IGOR software.

Structure (SMILES): COc1ccc(-c2nnc(-c3ccc4c(c3)C[C@](N)(CO)CC4)o2)cc1F [Example 8, (S)-(2-amino-7-(5-(3-fluoro-4-methoxyphenyl)-1,3,4-oxadiazol-2-yl)-1,2,3,4-tetrahydronaphthalen-2-yl)methanol]
CD8 (%) ([1]; 1 mg/kg): 16.6% | CD8 (%) ([1]; 5 mg/kg): 16.0% | CD4 (%) ([2]; 1 mg/kg): 33.4% | CD4 (%) ([2]; 5 mg/kg): 30.0% | CD19 (%) ([3]; 1 mg/kg): 36.8% | CD19 (%) ([3]; 5 mg/kg): 41.7%

Structure (SMILES): CC(=O)Nc1ccc(-c2nnc(-c3ccc4c(c3)C[C@](N)(CO)CC4)o2)cc1 [Example 9, (S)—N-(4-(5-(7-amino-7-(hydroxymethyl)-5,6,7,8-tetrahydronaphthalen-2-yl)-1,3,4-oxadiazol-2-yl)phenyl)acetamide]
CD8 (%) ([1]; 1 mg/kg): 17.3% | CD8 (%) ([1]; 5 mg/kg): 17.0% | CD4 (%) ([2]; 1 mg/kg): 33.1% | CD4 (%) ([2]; 5 mg/kg): 31.9% | CD19 (%) ([3]; 1 mg/kg): 42.5% | CD19 (%) ([3]; 5 mg/kg): 44.3%

stability of the solid [4]: prone to oxidative degradation
Structure (SMILES): N[C@@]1(CO)CCc2ccc(-c3nnc(-c4ccc(O)c(C(F)(F)F)c4)o3)cc2C1 [Example 10, (S)-4-(5-(7-amino-7-(hydroxymethyl)-5,6,7,8-tetrahydronaphthalen-2-yl)-1,3,4-oxadiazol-2-yl)-2-(trifluoromethyl)phenol]
CD8 (%) ([1]; 1 mg/kg): 15.3% | CD8 (%) ([1]; 5 mg/kg): 14.0% | CD4 (%) ([2]; 1 mg/kg): 31.1% | CD4 (%) ([2]; 5 mg/kg): 27.7% | CD19 (%) ([3]; 1 mg/kg): 44.3% | CD19 (%) ([3]; 5 mg/kg): 35.7%

Structure (SMILES): N[C@@]1(CO)CCc2ccc(-c3nnc(-c4ccc(C(F)(F)F)c(F)c4)o3)cc2C1 [Example 11, (S)-(2-amino-7-(5-(3-fluoro-4-(trifluoromethyl)phenyl)-1,3,4-oxadiazol-2-yl)-1,2,3,4-tetrahydronaphthalen-2-yl)methanol]
CD8 (%) ([1]; 1 mg/kg): 14.9% | CD8 (%) ([1]; 5 mg/kg): 13.8% | CD4 (%) ([2]; 1 mg/kg): 23.5% | CD4 (%) ([2]; 5 mg/kg): 20.5% | CD19 (%) ([3]; 1 mg/kg): 52.1% | CD19 (%) ([3]; 5 mg/kg): 54.0%

Structure (SMILES): N[C@@]1(CO)CCc2ccc(-c3nnc(-c4cc(C(F)(F)F)cc(C(F)(F)F)c4)o3)cc2C1 [Example 12, (S)-(2-amino-7-(5-(3,5-bis(trifluoromethyl)phenyl)-1,3,4-oxadiazol-2-yl)-1,2,3,4-tetrahydronaphthalen-2-yl)methanol]
CD8 (%) ([1]; 1 mg/kg): 9.6% | CD8 (%) ([1]; 5 mg/kg): 3.4% | CD4 (%) ([2]; 1 mg/kg): 15.2% | CD4 (%) ([2]; 5 mg/kg): 2.8% | CD19 (%) ([3]; 1 mg/kg): 53.2% | CD19 (%) ([3]; 5 mg/kg): 38.1%

EC50 (S1P3): 613 nM | EC50 (S1P4): > 100000 nM | EC50 (S1P1): 21.6 nM | EC50 (S1P2): > 100000 nM | EC50 (S1P5): > 10000 nM
Structure (SMILES): CCOc1ccc(-c2nnc(-c3ccc4c(c3)C[C@](N)(CO)CC4)o2)cc1OCC [Example 13, (S)-(2-amino-7-(5-(3,4-diethoxyphenyl)-1,3,4-oxadiazol-2-yl)-1,2,3,4-tetrahydronaphthalen-2-yl)methanol]
CD8 (%) ([1]; 1 mg/kg): 12.7% | CD8 (%) ([1]; 5 mg/kg): 9.4% | CD4 (%) ([2]; 1 mg/kg): 23.4% | CD4 (%) ([2]; 5 mg/kg): 11.6% | CD19 (%) ([3]; 1 mg/kg): 56.8% | CD19 (%) ([3]; 5 mg/kg): 53.8%

Structure (SMILES): CC(C)Oc1ccc(-c2nnc(-c3ccc4c(c3)C[C@](N)(CO)CC4)o2)cc1C(F)(F)F [Example 14, (S)-(2-amino-7-(5-(4-isopropoxy-3-(trifluoromethyl)phenyl)-1,3,4-oxadiazol-2-yl)-1,2,3,4-tetrahydronaphthalen-2-yl)methanol]
IC50 (hERG potassium channel): 870 nM

Structure (SMILES): CCCCCCCCCCCCC/C=C/[C@@H](O)[C@@H](N)COP(=O)(O)O [Example S1P, sphingosine-1-phosphate, reference compound]
EC50 (S1P3): 26.3 nM | EC50 (S1P4): 190 nM | EC50 (S1P1): 25.2 nM
